Data reported in patent US20250281451A1, “COMPOSITIONS AND METHODS FOR MODULATING SLEEP AND USES THEREOF” (Brightseed, Inc., priority 2022, published 2025).
“Also recorded” adds a separate entry of the source.

Assays:
Orx1 = biological target: T1, Orx1 (Homo sapiens, UniProt O43613); assay: % agonism on Orx1 at the OR2 IC50 concentration; assay type: cell-based; details: at the μM concentration needed to achieve IC50 in OR2
T1 sequence (O43613 1-425): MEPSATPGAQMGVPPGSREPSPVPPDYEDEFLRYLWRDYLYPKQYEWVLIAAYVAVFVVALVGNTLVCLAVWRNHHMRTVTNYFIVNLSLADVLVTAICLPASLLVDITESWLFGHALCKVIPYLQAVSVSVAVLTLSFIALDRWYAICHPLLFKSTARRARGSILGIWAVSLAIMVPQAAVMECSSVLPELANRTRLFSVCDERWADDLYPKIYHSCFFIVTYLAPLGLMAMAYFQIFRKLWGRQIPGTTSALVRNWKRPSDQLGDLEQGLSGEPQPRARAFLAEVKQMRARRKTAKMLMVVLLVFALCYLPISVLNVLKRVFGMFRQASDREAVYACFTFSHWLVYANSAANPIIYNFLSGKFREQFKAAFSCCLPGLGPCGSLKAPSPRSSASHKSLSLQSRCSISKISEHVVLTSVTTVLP
Experimental: For this example, the following protocol was used: 1.) seed cells in 20 μL Cell Plating Reagent; 2.) incubate cells overnight at 37° C. and 5% CO2; 3.) treat cells with 2.5 μL 10× antagonist prepared in Compound Dilution Buffer (For OR2 screening, 2.5 μL of 1:100 natural product sample in DiscoverX cell plating reagent.
(§1) The plants described herein were tested to determine the concentration, in μM, to achieve the relative IC50 of OR2 receptor, the absolute percent agonism achieved at the μM concentration of the relative OR2 IC50, the percentage receptor activity at the concentration, in μM, needed to achieve IC50 in OR2, the percentage cell viability, measured by XTT assay, at the IC50 μM concentration, the concentration of the fraction, in fold dilution, needed to achieve IC50 of OR2, and the percentage receptor activity at the concentration of the fraction, in fold dilution, needed to achieve IC50 of OR2.

Orx2 = biological target: T2, Orx2 (Homo sapiens, UniProt O43614); assay: Orx2 antagonist screening, chemiluminescent cell assay with Orexin B EC80; assay type: cell-based; details: for % Agonism Orx2 at Relative IC50: absolute percent agonism at the μM concentration of the relative OR2 IC50; for IC50: antagonist mode against Orexin B EC80, read-out: Relative IC50 of Orx2; for IC50 Dilution of Orx2 (fold dilution): concentration of the fraction of the plant source, in fold dilution, needed to achieve IC50 of OR2
T2 construct: DiscoverX
T2 sequence (O43614 1-444): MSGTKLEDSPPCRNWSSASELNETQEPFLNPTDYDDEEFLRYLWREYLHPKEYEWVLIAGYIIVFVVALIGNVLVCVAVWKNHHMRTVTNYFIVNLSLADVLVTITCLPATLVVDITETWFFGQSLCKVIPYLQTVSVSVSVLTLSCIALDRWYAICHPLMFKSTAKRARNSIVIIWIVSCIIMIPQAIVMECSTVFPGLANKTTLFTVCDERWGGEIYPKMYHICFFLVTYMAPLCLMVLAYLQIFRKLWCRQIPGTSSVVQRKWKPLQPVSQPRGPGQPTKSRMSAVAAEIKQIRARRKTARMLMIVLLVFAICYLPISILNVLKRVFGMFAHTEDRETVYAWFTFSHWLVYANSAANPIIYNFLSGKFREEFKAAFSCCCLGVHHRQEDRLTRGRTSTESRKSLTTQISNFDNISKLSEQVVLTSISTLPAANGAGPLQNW
Experimental: For this example, the following protocol was used: 1.) seed cells in 20 μL Cell Plating Reagent; 2.) incubate cells overnight at 37° C. and 5% CO2; 3.) treat cells with 2.5 μL 10× antagonist prepared in Compound Dilution Buffer (For OR2 screening, 2.5 μL of 1:100 natural product sample in DiscoverX cell plating reagent. Control antagonist, Seltorexant, 10× stock was prepared at 1500 nM); 4.) incubate for 30 minutes at 37° C. and 5% CO2; 5.) treat cells with 2.5 μL 10× agonist prepared in Compound Dilution Buffer (For OR2 screening, 2.5 μL of 10× Orexin B EC80, 252.7 nM); 6.) incubate for 90 minutes at 37° C. and 5% CO2; 7.) add 12.5 μL Working Detection Solution; 8.) incubate for 1 hour at room temperature in the dark; and 9.) read chemiluminescent signal.
as §1

male Sprague-Dawley rat = assay: in vivo tolerability, dose escalation, adverse effect observation; details: for 15 min effects (adverse effects) / 30 min effects (adverse effects) / 60 min effects (adverse effects): n=3 rats, (x/3) animals affected; for tolerability: all four doses (30, 100, 315 and 500 mg/kg) p.o., 60 min observation
Experimental: In this example, the in vivo tolerability of Compounds 26, 21, 29, and 13 was assessed.
Naïve rats (male Sprague-Dawley rat) were acclimatized to the procedure room in their home cages up to 7 days following arrival to the test facility, with food and water available ad libitum. On the day of experiment, animals were acclimatized to the experimental room for at least one hour prior to the beginning of any experiment. All animals were tail marked, weighed and randomly assigned to treatment groups. The animals (n=3 per dose) were treated with either Compounds 26, 21, 29, and 13 (10 mL/kg, p.o.). For each compound a maximum of 4 doses were tested using a dose escalation procedure starting from 30 mg/kg. If this initial dose is well-tolerated, the dosage is increased to 100 mg/kg. If the 30 mg/kg dose is not tolerated, the dose is reduced to 15 mg/kg. Following the dose escalation procedure, if the 100 mg/kg dose is well-tolerated, the dose is escalated to 315 mg/kg. If it is not tolerated, the dose is decreased to 60 mg/kg. The pattern continues with the next decision point: if 315 mg/kg is well-tolerated, the dose is increased to the maximum of 500 mg/kg. If 315 mg/kg is not tolerated, the dose is decreased to 200 mg/kg.
The compounds would be considered not tolerated if three or more adverse effects (or any severe adverse effect) occurred at specific dose during the entire period of 60 mins. […] Mild—slight decrease in activity, responsive when provoked. Moderate—decrease in activity, less responsive when provoked.

cells = assay: cell viability, XTT assay; assay type: cell-based; details: at the IC50 μM concentration of the compound
Experimental: as §1

| Compound | % Agonism on Orx1 at OR2 IC50 (Orx1) [%] | % Agonism Orx2 at Relative IC50 (Orx2) [%] | IC50 (Orx2) [µM] | IC50 Dilution of Orx2 (fold dilution) (Orx2) | 15 min effects (adverse effects) (male Sprague-Dawley rat; 30 mg/kg p.o.) | 30 min effects (adverse effects) (male Sprague-Dawley rat; 30 mg/kg p.o.) | 60 min effects (adverse effects) (male Sprague-Dawley rat; 30 mg/kg p.o.) | 15 min effects (adverse effects) (male Sprague-Dawley rat; 100 mg/kg p.o.) | 30 min effects (adverse effects) (male Sprague-Dawley rat; 100 mg/kg p.o.) | 60 min effects (adverse effects) (male Sprague-Dawley rat; 100 mg/kg p.o.) | 15 min effects (adverse effects) (male Sprague-Dawley rat; 315 mg/kg p.o.) | 30 min effects (adverse effects) (male Sprague-Dawley rat; 315 mg/kg p.o.) | 60 min effects (adverse effects) (male Sprague-Dawley rat; 315 mg/kg p.o.) | 15 min effects (adverse effects) (male Sprague-Dawley rat; 500 mg/kg p.o.) | 30 min effects (adverse effects) (male Sprague-Dawley rat; 500 mg/kg p.o.) | 60 min effects (adverse effects) (male Sprague-Dawley rat; 500 mg/kg p.o.) | tolerability (male Sprague-Dawley rat) | % Cell viability at IC50 (cells) [%] |
| --- | --- | --- | --- | --- | --- | --- | --- | --- | --- | --- | --- | --- | --- | --- | --- | --- | --- | --- |
| O=c1cc(-c2ccc(O)c(O)c2)oc2cc(O)cc(O)c12 [Compound 13, 2-(3,4-dihydroxyphenyl)-5,7-dihydroxychromen-4-one] | 42.72 | 50 | 72.5 | 2283.9 | No adverse effects | No adverse effects | Reduced activity (3/3) | No adverse effects | Reduced activity | No adverse effects | No adverse effects | No adverse effects | No adverse effects | Pica (2/3) | Reduced activity; also recorded: Pica (2/3) | Reduced activity (1/3) | well-tolerated | 98.24 |
| O=c1c(O[C@@H]2OC[C@H](O)[C@H](O)[C@H]2O)c(-c2ccc(O)cc2)oc2cc(O)cc(O)c12 [Compound 26, 5,7-dihydroxy-2-(4-hydroxyphenyl)-3-[(2S,3R,4S,5S)-3,4,5-trihydroxyoxan-2-yl]oxychromen-4-one] | 60.57 | 40 | 179 | – | Reduced activity | No adverse effects | Reduced activity (3/3) | Reduced activity | Reduced activity | Reduced activity (3/3) | No adverse effects | No adverse effects | No adverse effects | No adverse effects | Reduced activity | No adverse effects | well-tolerated | 98.95 |
| COc1c(O)cc2oc(-c3ccc(O[C@@H]4O[C@H](C(=O)O)[C@@H](O)[C@H](O)[C@H]4O)c(O)c3)c(OC)c(=O)c2c1O [Compound 28, (2S,3S,4S,5R,6S)-6-[4-(5,7-dihydroxy-3,6-dimethoxy-4-oxochromen-2-yl)-2-hydroxyphenoxy]-3,4,5-trihydroxyoxane-2-carboxylic acid] | 75.74 | 50 | 154 | – | – | – | – | – | – | – | – | – | – | – | – | – | – | 107.58 |
| Cc1cc(O)c2c(c1)C(=O)c1cc(O)cc(O[C@@H]3O[C@H](CO)[C@@H](O)[C@H](O)[C@H]3O)c1C2=O [Compound 30, 1,6-dihydroxy-3-methyl-8-[(2S,3R,4S,5S,6R)-3,4,5-trihydroxy-6-(hydroxymethyl)oxan-2-yl]oxyanthracene-9,10-dione] | 26.23 | 50 | 81.3 | – | – | – | – | – | – | – | – | – | – | – | – | – | – | 100 |
| C[C@@H]1O[C@@H](O[C@H]2[C@H](Oc3c(-c4ccc(O)cc4)oc4cc(O)cc(O)c4c3=O)O[C@H](CO)[C@@H](O)[C@@H]2O)[C@H](O)[C@H](O)[C@H]1O [Compound 23, 3-[(2S,3R,4S,5S,6R)-4,5-dihydroxy-6-(hydroxymethyl)-3-[(2S,3R,4R,5R,6S)-3,4,5-trihydroxy-6-methyloxan-2-yl]oxyoxan-2-yl]oxy-5,7-dihydroxy-2-(4-hydroxyphenyl)chromen-4-one] | 104.1268 | 50 | 174 | – | – | – | – | – | – | – | – | – | – | – | – | – | – | 107.68 |
| COc1c(O)cc2oc(-c3ccc(O)cc3)c(OC)c(=O)c2c1O [Compound 14, 5,7-dihydroxy-2-(4-hydroxyphenyl)-3,6-dimethoxychromen-4-one] | 62.98 | 50 | 89 | 3466.5 | – | – | – | – | – | – | – | – | – | – | – | – | – | 94.58 |
